Laboratory results published in ChEMBL document CHEMBL5053550, “LipE guided discovery of isopropylphenyl pyridazines as pantothenate kinase modulators” (Bioorg Med Chem, 2021).
≈ marks a conversion by molar mass, not a printed value.

How the values were obtained:
Pantothenate kinase 3 = Pantothenate kinase 3 (Homo sapiens, UniProt Q9H999)
Description: Inhibition of human recombinant N-terminal His6-fusion tagged PanK3 expressed in Escherichia coli BL21 (DE3) measured after 10 mins in presence of ATP and D-[14C]-pantothenate by scintillation counting method

[1] = Half life in mouse liver microsomes; type: ADME, Microsome; conditions: for half-life: liver microsomes
[2] = Protein binding in rat plasma by LCMS analysis; type: ADME, cell-free
[3] = Half life in […] rat microsomes; type: ADME, Liver, Microsome
[4] = Half life in human plasma; type: ADME, cell-free
[5] = Half life in […] human microsomes; type: ADME, Liver, Microsome
[6] = Permeability of the compound by PAMPA assay; type: ADME; conditions: for Papp: read-out: permeability
[7] = Permeability across apical to basolateral side in human Caco2 cells; type: ADME, cell-based; conditions: Caco-2, read-out: permeability
[8] = Protein binding in human plasma by LCMS analysis; type: ADME, cell-free
[9] = Protein binding in mouse plasma by LCMS analysis; type: ADME, cell-free
[10] = Solubility of the compound in pH 7.4 by UV spectrometry; type: physicochemical; conditions: buffer

Sequence of Pantothenate kinase 3 (Q9H999 whole entry): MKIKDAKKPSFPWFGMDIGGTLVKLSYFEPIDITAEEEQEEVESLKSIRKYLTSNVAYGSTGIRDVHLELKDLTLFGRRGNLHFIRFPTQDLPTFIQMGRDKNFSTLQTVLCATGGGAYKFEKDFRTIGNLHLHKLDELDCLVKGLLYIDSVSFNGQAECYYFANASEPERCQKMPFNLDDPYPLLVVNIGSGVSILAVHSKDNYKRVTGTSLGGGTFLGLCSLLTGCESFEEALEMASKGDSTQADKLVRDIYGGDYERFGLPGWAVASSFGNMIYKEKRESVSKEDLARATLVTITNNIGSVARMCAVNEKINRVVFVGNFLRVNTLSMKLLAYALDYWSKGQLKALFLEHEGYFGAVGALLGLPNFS

| SMILES | IC50 (Pantothenate kinase 3) [nM] | also measured |
| --- | --- | --- |
| CC(C)c1ccc(NC(=O)N2CCN(c3ncccc3C#N)CC2)cc1 | 1100 |  |
| CC(C)c1ccc(NC(=O)N2CCN(c3ccc(Cl)c(Cl)c3)CC2)cc1 | 1400 |  |
| CC(=O)c1ccc(N2CCN(C(=O)Nc3ccc(C(C)C)cc3)CC2)cc1 | 3300 |  |
| CC(C)c1ccc(NC(=O)N2CCN(c3ccc(Cl)cn3)CC2)cc1 | 220 |  |
| N#Cc1ccc(N2CCN(C(=O)Cc3ccc(C4CC4)cc3)CC2)nc1 | 200 |  |
| CC(C)c1ccc(NC(=O)N2CCN(c3ccc(C#N)cn3)CC2)cc1 | 640 |  |
| CC(C)c1ccc(NC(=O)N2CCN(c3ccc(F)cc3)CC2)cc1 | 1800 |  |
| CC(C)(C)c1ccc(NC(=O)N2CCN(c3ccc(C#N)cn3)CC2)cc1 |  | half-life [1]: 16 min; PPB [2]: 98%; half-life [3]: 31 min; half-life [4]: > 48 h; half-life [5]: 8 min; permeability [6]: 1232 10^-6 cm/s |
| CC(C)c1ccc(NC(=O)N2CCN(c3ccc(Br)cn3)CC2)cc1 | 220 |  |
| CC(C)c1ccc(CC(=O)N2CCN(c3ccc(C#N)nn3)CC2)cc1 |  | half-life [1]: 8 min; fraction unbound ([2]; read-out: PPB): 0.09; Papp A→B [7]: 30.2 ×10⁻⁶ cm/s; fraction unbound ([8]; read-out: PPB (converted)): 0.07; fraction unbound ([9]; read-out: PPB (converted)): 0.08; half-life [4]: > 48 h; half-life [5]: 7 min; Papp [6]: 413 ×10⁻⁶ cm/s |
| CC(C)c1ccc(NC(=O)N2CCN(c3ccc(C#N)nn3)CC2)cc1 |  | t1/2 ([1]; microsomes): 113 min; PPB [2]: 89%; t1/2 [3]: 294 min; PPB [8]: 92%; solubility [10]: 5.5 µM (≈ 1.93 µg/mL); PPB [9]: 92%; half-life [4]: > 48 h; t1/2 [5]: 64 min; Papp [6]: 316 ×10⁻⁶ cm/s |
| CC(C)c1ccc(NC(=O)N2CCN(c3cc(C#N)ccn3)CC2)cc1 | 230 |  |
| CCCCc1ccc(NC(=O)N2CCN(c3ccc(C#N)cn3)CC2)c(C)c1 | 1200 |  |
| Cc1ccc(N2CCN(C(=O)Nc3ccc(C(C)C)cc3)CC2)nc1 | 2300 |  |
| CC(C)c1ccc(OC(=O)N2CCN(c3ccc(C#N)cn3)CC2)cc1 | 420 |  |
| CC(C)c1ccc(C(O)C(=O)N2CCN(c3ccc(C#N)cn3)CC2)cc1 (stereo unspecified) | 990 |  |
| CC(C)c1ccc(CC(=O)N2CCN(c3nccc(Cl)n3)CC2)cc1 | 270 |  |
| CC(C)c1ccc(NC(=O)N2CCN(c3cccc(Cl)c3)CC2)cc1 | 1700 |  |
| CC(C)c1ccc(NC(=O)N2CCN(c3ncc(Br)cn3)CC2)cc1 | 160 |  |
| CC(C)c1ccc(NC(=O)N2CCN(c3nccc(C#N)n3)CC2)cc1 | 140 |  |
| CC(C)c1ccc(NC(=O)N2CCN(c3ccccn3)CC2)cc1 | 5300 |  |
| CC(C)Cc1ccc(NC(=O)N2CCN(c3ccc(C#N)cn3)CC2)cc1 | 490 |  |
| CC(C)c1ccc(NC(=O)N2CCN(c3ccc(C#N)cc3)CC2)cc1 | 580 |  |
| CC(C)c1ccc(NC(=O)N2CCN(c3ccc(N)cn3)CC2)cc1 | > 10000 |  |
| CC(C)c1ccc(NC(=O)N2CCN(c3cnc(C#N)nc3)CC2)cc1 | 170 |  |
| CC(C)c1ccc(NC(=O)N2CCN(c3ccc(C(F)(F)F)cn3)CC2)cc1 | 770 |  |
